Data taken from patent US20090118264A1, “Medicament having neovascularization promoting action” (Research Foundation Itsuu Laboratory, priority 2005, published 2009).
Where two headings read alike, the source gives them in different places.

Experiments:
[1] = system: human umbilical vein endothelial cells and human skin fibroblasts; assay: Neovascularization in co-culture system of human umbilical vein endothelial cells and human skin fibroblasts (Neovascularization Kit), anti-CD31 immunostaining; format: cell-based
Method: The effect of LE135 on neovascularization was investigated by using a co-culture system of human umbilical vein endothelial cells and human skin fibroblasts (Neovascularization Kit, Kurabo Industries Ltd.). The vascular endothelial growth factor (VEGF) having a potent neovascularization action, added to 8 wells at a final concentration of 10 ng/ml, was used as positive control. Culture medium alone added to 8 wells without addition of the medicament was used as negative control. LE135 was added to the wells (8 wells for each group) at various concentrations, and culture was performed for 11 days. Immunostaining was performed by using anti-CD31 (PECAM1) antibodies directed to the vascular endothelial cells to determine the areas of luminal structures similar to blood vessels showing positive results and the numbers of branchings as an index of maturity of the formed luminal structures. The luminal structure areas and the numbers of branchings observed in the wells added with the medicament (LE135 or VEGF as the positive control) at various concentrations are shown in Table 1 in terms of relative values based on the luminal structure area and the number of branchings observed in the medicament-free wells as the negative control, which were taken as 100, respectively.
The effects of RAR antagonists other than LE135 on neovascularization were examined by using a co-culture system of human umbilical vein endothelial cells and human skin fibroblasts (Neovascularization Kit, Kurabo Industries Ltd.). The vascular endothelial growth factor (VEGF) having a potent neovascularization action added to wells at a final concentration of […] was used as positive control. Culture medium alone added to wells without addition of the medicament was used as negative control. Each compound was added at a concentration of 10^−9 mol/L, and culture was performed for 11 days. Immunostaining was performed by using anti-CD31 (PECAM1) antibodies directed to vascular endothelial cells to determine the areas of luminal structures similar to blood vessels showing positive results and the numbers of branchings as an index of maturity of the formed luminal structures. The luminal structure areas and the numbers of branchings observed in the wells added with the medicament at each given concentration are shown in the following table in terms of relative values based on the luminal structure area and the number of branchings observed in the medicament-free wells as the negative control, which were taken as 100, respectively.

[2] = system: mouse lower extremity ischemia model; assay: Neovascularization experiment using mouse lower extremity ischemia model; format: in vivo, mice (C3H/HeNCrj)
Method: The femoral arteries on one side of 24 to 36-week old wild-type male mice (C3H/HeNCrj) were ligated and separated to prepare lower extremity ischemia model mice. […] The blood flow ratio between the affected extremities and the normal extremities was determined by the laser Doppler method on the day before the operation and 1, 3, 4, 5, 7, 9, 12, 14, 16, 18, 21, 24 and 28 days after the operation. […] In order to detect vascular endothelial cells in muscle tissues of the affected extremities on 21st day after the operation, immunostaining was performed by using anti-CD31 (PECAM1) antibodies.

[3] = system: rabbit lower extremity ischemia model; assay: Intramuscular administration to rabbit lower extremity ischemia model, angiography; format: in vivo, rabbits; settings: 10^−8 M LE135 solution injected into femoral muscles, 3 times per week; 28th day from the ligature; compared with control group (FIG. 2)
Method: The external iliac arteries on one side of rabbits were ligated and separated, and a 10^−8 M LE135 solution was injected into the femoral muscles on the same side to examine the neovascularization effect of the medicament. A solution of an organic solvent alone in the same amount as used for dissolution of LE135 was used as a negative control. The solutions were administered 3 times per week from the next day of the ligature. […] The blood vessels surrounded by the broken lines are considered to be collateral blood routes. In the figure, the white arrows* indicate the common iliac arteries.

[4] = Example 4: each compound 10^−9 mol/L, culture 11 days, relative value, negative control taken as 100, mean ± SD (Table 3)
[5] = LE135 10^−9 M, culture 11 days, relative value, negative control taken as 100, mean ± SD (Table 1)
[6] = LE135 10^−10 M, culture 11 days, relative value, negative control taken as 100, mean ± SD
[7] = LE135 10^−11 M, culture 11 days, relative value, negative control taken as 100, mean ± SD

VEGF
Number of branching [1]: 154.20 ± 7.12 | Number of branchings [1]: 321.50 ± 42.17 | Area (luminal structure area) ([1]; Example 4: VEGF final concentration 10 μg/ml, culture 11 days, relative value, negative control taken as 100 (Table 3)): 202.52 ± 18.40 | Area (luminal structure area) ([1]; VEGF final concentration 10 ng/ml, culture 11 days, relative value, negative control taken as 100 (Table 1)): 134.88 ± 4.42

CN1c2cc3c(cc2N=C(c2ccc(C(=O)O)cc2)c2ccccc21)C(C)(C)CCC3(C)C [LE135, 4-(5H-7,8,9,10-tetrahydro-5,7,7,10,10-pentamethylbenzo[e]naphtho[2,3-b][1,4]diazepin-13-yl)benzoic acid]
Area (luminal structure area) [1, 4]: 158.73 ± 6.89 | Number of branchings [1, 4]: 170.09 ± 14.87 | Area (luminal structure area) [1, 5]: 112.52 ± 4.68 | Number of branching [1, 5]: 150.31 ± 10.26 | Area (luminal structure area) [1, 6]: 116.30 ± 5.69 | Number of branching [1, 6]: 137.40 ± 9.48 | Area (luminal structure area) [1, 7]: 109.09 ± 4.89 | Number of branching [1, 7]: 118.70 ± 9.27 | Promotion of neovascularization ([1]; concentrations of 10^−10 and 10^−9 M, versus negative control): significantly promoted neovascularization | CD31-positive cell count per field (200×) ([2]; mice orally administered with 5 mg/kg of LE135, muscle tissues of affected extremities, 21st day after the operation): 21.63 ± 4.12 per field (200×) | Numbers of endothelial cells (CD31-positive cells), in words ([2]; muscle tissues of affected extremities, 21st day after the operation, compared with no medicament-administered group): significantly higher numbers of endothelial cells | Necrosis or amputation in the lower extremities ([2]; orally 5 mg/kg of LE135, 28th day after the operation, about 30% in no medicament-administered mice): no mouse among the LE135-administered mice was observed to have necrosis or amputation | Blood flow ratio between affected and normal extremities (laser Doppler method) ([2]; orally 5 mg/kg of LE135, up to 28 days after the operation, compared with no medicament-administered mice (FIG. 1)): Significant improvement of the blood flow | Formation of collateral blood routes (angiography) [3]: evidently better formation of collateral blood routes

CN1c2cc3c(cc2N=C(c2ccc(C(=O)O)cc2)c2ccc4ccccc4c21)C(C)(C)CCC3(C)C [LE540]
Blood vessel luminal structure area (in words) ([1]; Example 4: 10^−9 mol/L, versus negative control): significantly increased the blood vessel luminal structure area | Area (luminal structure area) [1, 4]: 172.02 ± 22.00 | Number of branchings [1, 4]: 195.33 ± 24.49
